Data as given in patent publication US20120184590A1, “FORMULATIONS OF INDOLE-3-CARBINOL DERIVED ANTITUMOR AGENTS WITH INCREASED ORAL BIOAVAILABILITY” (UNIVERSITY OF KANSAS, priority 2009, published 2012).
Entries after “also recorded” stand apart in the source; their conditions may differ. Marks after values point to notes of the source that are not given here.

Experiment: Clinical observations and clinical pathology (liver enzymes) in monkeys
Assay type: in vivo, cynomolgus monkeys (macaca fasicularis)
Conditions: for ALT / AST / LDH: fed
Protocol: For both species, each animal was part of each experimental group, with a 7-day interval between treatments to allow for washout of the dosing formulation and its effects. Dosing formulations of SR13668 were administered by oral gavage (intragastric) or intravenous (i.v.) injection as a single dose or once daily for seven consecutive days. Oral to doses were administered at a dosing volume of 5 mL/kg of body weight, while intravenous doses were administered at a dosing volume of 0.5 mL/kg of body weight. Dogs were dosed with 93.6 mg/m^2 SR13668 intravenously in DMSO:PEG300 15:85 (v/v) or orally in Solutol® vehicle (two groups, fed and after an overnight fast). Monkeys were dosed with 84.2 mg/m^2 SR13668 intravenously in DMSO:PEG300 15:85 (v/v) or orally (336.7 mg/m^2 SR13668 for the oral high dose group) in PEG400:Labrasol® 1:1 (v/v) or Solutol® vehicles. Vehicle control groups were used to assess the tolerability of the vehicle and for clinical pathology evaluations.
At the end of each dosing period, the animals were examined for detailed clinical signs and symptoms (i.e., alterations of teeth, nose, eyes, perineum, pelage and body orifices; changes in appearance or behavior) and/or presence of any tissue masses. Body weights were recorded prior to treatment and daily during each testing interval. Quantitative (grams/day) food consumption data were recorded for dogs on a daily basis during each testing interval. Qualitative food consumption observations were recorded for monkeys on a daily basis during each testing interval. Blood samples for clinical pathology (clinical chemistry, hematology, and coagulation) parameter evaluation were collected from dogs and monkeys prior to dosing and on Days 2 and 8 post-dose, as well as from monkeys on Days 15 and 30 post-dose.

[1] = Day 2 (n = 2), 84.2 mg/m^2 (7.02 mg/kg) oral gavage daily days 1 through 7, PEG400:Labrasol 1:1 v/v
[2] = Day 8, 84.2 mg/m^2 (7.02 mg/kg) oral gavage daily days 1 through 7, PEG400:Labrasol 1:1 v/v
[3] = Day 15 (after discontinuation), 84.2 mg/m^2 (7.02 mg/kg) oral gavage daily days 1 through 7, PEG400:Labrasol 1:1 v/v
[4] = Day 30 (after discontinuation), 84.2 mg/m^2 (7.02 mg/kg) oral gavage daily days 1 through 7, PEG400:Labrasol 1:1 v/v
[5] = day 2 following a single dose, 84.2 mg/m^2 (7.02 mg/kg) iv, DMSO:PEG300 15:85 v/v
[6] = day 2 following a single dose, 84.2 mg/m^2 (7.02 mg/kg) oral gavage, Solutol
[7] = day 2 following a single dose, 336.7 mg/m^2 (28.06 mg/kg) oral gavage, PEG400:Labrasol 1:1 v/v
[8] = day 2 following a single dose, n = 4, 84.2 mg/m^2 (7.02 mg/kg) oral gavage, PEG400:Labrasol 1:1 v/v

## CCOC(=O)c1ccc2[nH]c3c(OC)c4[nH]c5ccc(C(=O)OCC)cc5c4cc3c2c1 [SR13668, 2,10-dicarbethoxy-6-methoxy-5,7-dihydro-indolo-(2,3-b)carbazole]
  adverse treatment-related clinical observations: soft stools and diarrhea in orally but not i.v. dosed monkeys
  effects on body weights, body weight gains or food consumption: No significant treatment-related effects on body weights, body weight gains or food consumption
  effects on clinical pathology (clinical chemistry, hematology, coagulation): modest, reversible increase in liver function enzymes; also recorded: modest increases in liver enzymes
  mortality or morbidity: no mortalities or morbidity
[1]
  ALT: 112 ± 52 IU/L
  AST: 234 ± 115 IU/L
  LDH: 1022 ± 401 IU/L
[2]
  ALT: 100 ± 38 ^a IU/L
  AST: 178 ± 86 ^b IU/L
  LDH: 1035 ± 596 IU/L
[3]
  ALT: 41.3 ± 10 IU/L
  AST: 24.0 ± 2.9 IU/L
  LDH: 184 ± 39 IU/L
[4]
  ALT: 33.3 ± 2.2 IU/L
  AST: 22.5 ± 4.3 IU/L
  LDH: 168 ± 39 IU/L
LDH, ALT, AST
  reversibility of liver enzyme increases: reversible on discontinuation of dosing
[5]
  ALT: 88.5 ± 37 IU/L
  AST: 134 ± 41 ^b IU/L
  LDH: 730 ± 210 ^c IU/L
[6]
  ALT: 95.5 ± 33 IU/L
  AST: 150 ± 40 ^b IU/L
  LDH: 779 ± 403 IU/L
[7]
  ALT: 108 ± 28 ^a IU/L
  AST: 188 ± 34 ^b IU/L
  LDH: 753 ± 242 ^c IU/L
[8]
  ALT: 86.0 ± 24 IU/L
  AST: 138 ± 75 IU/L
  LDH: 795 ± 455 IU/L
